Tests used:
U937 cells [1] = test: Cell cycle analysis by 7-AAD staining; type: cell-based, human; settings: 24 hours
Procedure: (§1) To evaluate the effects of BKT300-N1 on cell cycle distribution 7-Aminoactinomycin D (7-AAD) protocol was used. Cells were seeded in 24 wells of microplates at a density of 1×10^6 Cells/well and exposed to different concentrations of the tested compound, BKT300-N1 or BKT300-3-C5, for 24 or 48 hours at 37° C. in a CO2 incubator. After incubation time, cells were collected and washed with cold PBS. Cells were fixed for 20 minutes at 4° C. and processed according to the 7-AAD labeling protocol. The intensity of dye in staining cells was measured by flow cytometry. Cell cycle analysis calculated G0/G1, G2/M and sub-G0 phases from a 7-AAD area histogram.
Using the above protocol, U937 cells were treated with different concentrations of BKT300-N1 or BKT300-3-C5 (0.05, 0.1, 0.5 and 1 μM) for 24 hours and then cell cycle phases were analyzed by flow cytometry using 7-AAD.

[2] = test system: human ovarian (CTG-1086) cancer; test: Patient derived xenograft (PDX) tumor growth, ovarian; type: in vivo, mice; settings: SC every 12 hours, 5 mg or 10 mg daily dose; compared to vehicle control; FIG. 13A
Procedure: (§2) In additional experiments, the in vivo efficacy of BKT300-N1, on the growth of subcutaneous, low passage Champions' TumourGraft® patient derived xenograft (PDX) models of human non-small-cell lung (CTG-0198), colorectal (CTG-0923) and ovarian (CTG-1086) cancer in female immunocompromised mice was tested.
(§3) Athymic Nude-Foxn1nu (Immunocompromised) female mice aged 6-8 weeks were implanted with 1-1.5 cm^3 harvested tumors unilaterally on the left flank. When the tumors reached an average volume of 200 cubic millimeters, control group was treated daily with a vehicle and treatment group was treated with either 2.5 mg per mice per injection (low dose) or 5 mg per mice per injection (hight dose) of BKT300-N1. The control group was subcutaneously (SC) injected with the vehicle (Cremophore EL and Ethanol 50%/50% volume/volume) diluted 1:6 with 0.9% Sodium Chloride.
(§4) For the low dose treatment group, a stock solution of 30 mg/mL BKN300-N1 was preapared in the vehicle and further diluted 1:6 with 0.9% Sodium Chloride, to a final concentration of 5 mg/mL. Animals received a 0.5 mL subcutaneously (SC) injection every 12 hours (for a 2.5 mg/injection=5 mg daily dose).
(§5) For the high dose treatment group, a stock solution of 30 mg/mL BKN300-N1 was preapared in the vehicle and further diluted 1:3 with 0.9% Sodium Chloride, to a final concentration of 10 mg/mL. […]

U937 cells [3] = test: Annexin-V/PI apoptosis assay by flow cytometry; type: cell-based, human; settings: 25-1000 nM, 24 hours, compared to BKT300-3-C5
Procedure: Apoptosis was determined by flow cytometry analysis using Annexin-V kit. U937 cancer cells were incubated in RPMI cell medium with 1% fetal calf serum (FCS) at a concentration of 1×10^6 cells/well at a final volume of 1 ml in 24-well plate. The tested compound (BKT300-N1 or BKT300-3-C5) was added to the cells at the indicated concentrations. After 24 hours incubation, medium and cells were collected and centrifuged, then stained with Annexin-V and propidium iodide (PI) kit according to manufacturer's instructions. The numbers of viable cells (Annexin-V negative/PI negative); early apoptotic cells (Annexin-V positive/PI negative); late apoptosis cells (Annexin-V positive/PI positive) and necrotic cells (Annexin-V negative/PI positive) were then evaluated by flow cytometry (FACS).

HEY-T30 cells = test: Cell cycle analysis by 7-AAD, Taxol-resistant ovarian cancer cells; type: cell-based; settings: 24 hours
Procedure: Cells (1×10^6 cells/ml) were cultured in 12-well plates in 10% FCS. After 24 hours the medium was replaced by 1% FCS and BKT300-N1 or Taxol (250-3.75 nM) were added.
24 hours incubation, cells were harvested and washed with PBS. The pellet was fixed by adding 200 μl Fix/Perm buffer and vortexed. The fixed cells were incubated for 20 minutes at 4° C. and then 1 ml of Perm/Wash buffer was added. Following centrifugation, supernatant was removed and cells were resuspended in 100 μl Perm/Wash plus 4 μl of 7-AAD and vortexed. The cells were then incubated in the dark for 20 minutes at 4° C. and thereafter 300 μl of PBS was added. Flow cytometry analysis was performed by collecting 20,000 events per sample. Analysis was done according to the distribution of cells in three major phases of the cycle: G0/G1 (blue), S (purple), G2/M (green), and apoptotic cells (red), as shown in FIGS. 15-18C.
All results are expressed as average ±SD. Statistical differences were determined by an analysis of two-tailed Student's t test. Values of p<0.05 were considered to be statistically significant.
Cells were incubated in different doses of Taxol (30, 15, 7.5, 3.75 nM) for 24 hours and were thereafter analyzed as described hereinabove.
Next, the effect of BKT300-N1 on the taxol resistance cells was tested. Both ovarian cancer cell lines were incubated with BKT300-N1 (250, 125, 62.5, 31.25, 15.6 nM). For comparison, the effect of the same amounts of Taxol was also tested.

[4] = test system: human non-small-cell lung (CTG-0198) cancer; test: Patient derived xenograft (PDX) tumor growth, lung; type: in vivo, mice; settings: SC every 12 hours, 5 mg or 10 mg daily dose; compared to vehicle control; FIG. 13B
Procedure: as §2, §3, §4, §5

HCC SNU449 cells = test: Scratch assay (IncuCyte), cell invasion and migration; type: cell-based, human
Procedure: Scratch assay was performed to assess the effects of BKT300-N1 compared to that of BKT300-3-C5 on cell invasion and migration. This system measures scratch closure in real time and automatically calculates the relative wound density and wound width within the initially-vacant area at each time point. The relative wound density is the ratio of the occupied area to the total area of the initial scratched region.
Cells were plated on 96-well Image-lock plates (Essen Bioscience) and grown overnight to form a spatially uniform monolayer.
Scratches were made by using a 96-pin tool WoundMaker™ (Essen BioScience) to create uniform, reproducible scratches in all the wells of a 96-well plate. After creating the scratch, the medium was aspirated and the wells are washed twice with fresh medium to remove any cells from the scratched area. Following the washes, fresh medium containing different concentrations of the tested compound was added to the wells. Once the fresh medium is added, the plate was placed into the IncuCyte ZOOM™ apparatus and images of the collective cell spreading are recorded every 4 hours for a total duration of 60 hours.
Data processing and analysis were done using the IncuCyte S3 Live-cells Analysis System.
The scratch assay was performed using HCC SNU449 cells. The cells were scratched and incubated with 0.05, 0.1, 0.5, 1 and 10 μM of BKT300-N1 or BKT300-3-C5.

[5] = test system: cleaved caspase-3 in U937 cells; test: Western blot for cleaved caspase-3; type: cell-based, human; settings: 0.1, 0.5 and 1 μM; 24 hours; FIGS. 7A-7B
Procedure: The role of caspase-3 (CASP3) in the BKT300-N1-induced apoptosis of AML cell lines U937 was tested. Cells were incubated with BKT300-N1 (0.1, 0.5 and 1 μM) for 24 hours, and were then tested for the presence of cleaved caspase 3 using mAb against human cleaved caspase 3 by Western blot assay.

H69 cells = test: Cell cycle analysis by 7-AAD staining; type: cell-based; settings: different concentrations; 48 hours; FIG. 9
Procedure: as §1
Using the above protocol, H69 cells were treated with different concentrations of BKT300-N1 for 48 hours and then cell cycle phases were analyzed by flow cytometry using 7-AAD. Cells were gated according to the cells cycle phase: P1 for G0/G1 phase; P2-apoptotic cells in subG0 phase; and P3 for G2/M phase.

[6] = test system: human colorectal (CTG-0923) cancer; test: Patient derived xenograft (PDX) tumor growth, colorectal; type: in vivo, mice; settings: SC every 12 hours, 5 mg or 10 mg daily dose; compared to vehicle control; FIG. 13C
Procedure: as §2, §3, §4, §5

SDF-1 = SDF-1 (Homo sapiens, UniProt P48061); test: Transwell migration assay of Jurkat cells towards SDF-1; type: cell-based; settings: 0.5 μM, 1 μM, or 5 μM; 100 ng/ml SDF-1; 3 hours; FIG. 2
Sequence of SDF-1 (P48061 22-93, species assumed): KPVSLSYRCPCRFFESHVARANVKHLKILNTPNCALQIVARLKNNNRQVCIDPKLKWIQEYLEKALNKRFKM
Procedure: 600 μl of RPMI medium containing 1% fetal calf serum (FCS) was added to the lower chambers of Transwell® transmigration plates, supplemented with 100 ng/ml of SDF-1. BKT300-N1 was added to the lower chambers at the indicated concentration, except in control samples. The SDF-1 was incubated with BKT300-N1 for 30 minutes at room temperature before the initiation of the migration assay. Following 30 minutes of incubation 2×10^5 Jurkat cells were added to the upper chambers of the transmigration plates in a total volume of 100 μl. Cells which migrated within 3 hours to the bottom chamber of the Transwell® plates were counted using a FACScalibur™ flow cytometer.

cancer cells = settings: described in WO 2017/103931; cited from earlier work
CXCR4 = settings: animal studies, cited from earlier work
OVCAR8 cells = test: Cell cycle analysis by 7-AAD, Taxol-sensitive ovarian cancer cells; type: cell-based; settings: lowest taxol concentration of 3.75 nM; 24 hours; FIG. 16
Procedure: Cells (1×10^6 cells/ml) were cultured in 12-well plates in 10% FCS. […] 24 hours incubation, cells were harvested and washed with PBS. The pellet was fixed by adding 200 μl Fix/Perm buffer and vortexed. The fixed cells were incubated for 20 minutes at 4° C. and then 1 ml of Perm/Wash buffer was added. Following centrifugation, supernatant was removed and cells were resuspended in 100 μl Perm/Wash plus 4 μl of 7-AAD and vortexed. The cells were then incubated in the dark for 20 minutes at 4° C. and thereafter 300 μl of PBS was added. Flow cytometry analysis was performed by collecting 20,000 events per sample. […] All results are expressed as average ±SD. Statistical differences were determined by an analysis of two-tailed Student's t test. Values of p<0.05 were considered to be statistically significant. Cells were incubated in different doses of Taxol (30, 15, 7.5, 3.75 nM) for 24 hours and were thereafter analyzed as described hereinabove.

[7] = all tested concentrations (0.05, 0.1, 0.5 and 1 μM), FIG. 8A

CCCCCc1c(O)c2cc(OC)cc(Oc3ccc(O)cc3OC)c2[nH]c1=O [BKT300-N1, 4-hydroxy-8-(4-hydroxy-2-methoxyphenoxy)-6-methoxy-3-pentylquinolin-2(1H)-one]
cell cycle arrest (U937 cells [1]; [7]): resulted in cell cycle arrest | cells death (U937 cells [1]; [7]): induced cells death | tumor growth [2]: substantial reduction and even arrest in tumor growth | viability of U937 cells as the number of Annexin-V−/PI− viable cells (U937 cells [3]; all tested concentrations, FIG. 6A): improved effect | reduction in the percentage of viable cells via apoptosis (U937 cells [3]; FIGS. 6A-6B): substantially higher effect | level of dead cells (HEY-T30 cells; significant at a concentration of 62.5 nM, FIG. 18A): increasing the level of dead cells | percentage of cells at G0/G1 phase (HEY-T30 cells; significant at concentration of 125 nM, FIG. 18B): reducing the percentage of cells at G0/G1 phase | level of cells in G2/M phase (HEY-T30 cells; significant at concentration of 125 nM, FIG. 18C): increasing the level of cells in G2/M phase | tumor growth [4]: substantial reduction and even arrest in tumor growth | wound width values (HCC SNU449 cells; 0.05, 0.1, 0.5, 1 and 10 μM, over BKT300-3-C5, particularly at the lower concentrations, FIGS. 4A-4E): improved effect | relative wound area (HCC SNU449 cells; at 24 hours, already at 0.1 μM, compared to BKT300-3-C5, FIG. 3): improved effect | presence of cleaved caspase-3 (mechanism of induced apoptosis) [5]: via caspase-3 activation | apoptotic cell death (H69 cells): induce apoptotic cell death | cell cycle growth arrest (H69 cells): arrest the growth at the G2M phase | tumor growth [6]: substantial reduction and even arrest in tumor growth | migration of lymphocytic Jurkat cells towards SDF-1 (SDF-1): significantly inhibited

CCCCCc1cc2cc(O)cc(Oc3c(O)cc(O)cc3CCCCC)c2c(=O)o1 [BKT300]
cancer cell death (cancer cells): inducing cancer cell death | cancer cell migration (cancer cells): inhibiting cancer cell migration

CCCCCC1C(=O)Nc2c(Oc3ccc(OC)cc3OC)cc(OC)cc2C1=O (stereo not shown) [BKT300-3-C5, reference compound]
cells death (U937 cells [1]; concentration lower than 0.5 μM, FIG. 8B): did not induce cells death

c1cc(CN2CCCNCCNCCCNCC2)ccc1CN1CCCNCCNCCCNCC1 [plerixafor]
recurrence of glioblastoma associated with vasculogenesis (CXCR4; Kioi et al. 2010): reduce recurrence of glioblastoma | metastasis (CXCR4; Smith et al. 2004): reduce metastasis | opioid-induced hyperalgesia (CXCR4; Wilson et al. 2011): counteract opioid-induced hyperalgesia

CC(=O)O[C@H]1C(=O)[C@@]2(C)[C@H]([C@H](OC(=O)c3ccccc3)[C@]3(O)C[C@H](OC(=O)[C@H](O)[C@@H](NC(=O)c4ccccc4)c4ccccc4)C(C)=C1C3(C)C)[C@]1(OC(C)=O)CO[C@@H]1C[C@@H]2O [Taxol, reference compound]
effect on cell cycle (OVCAR8 cells): effect on cell cycle was already evident | effect on cell cycle (HEY-T30 cells; Taxol 30, 15, 7.5, 3.75 nM, FIG. 15): no effect on cell cycle | effects on dead cells, G0/G1 phase and G2/M phase (HEY-T30 cells; any of the tested concentrations (250, 125, 62.5, 31.25, 15.6 nM), FIGS. 18A-18C): no significant effects
